{"source": "patent US20170066795A1", "about": "“SOLID PRODRUG FORMS OF 2'-CHLORO-2'-METHYL URIDINE FOR HCV” (IDENIX PHARMACEUTICALS LLC, priority 2014, published 2017)", "key": {"[1]": {"test": "Example 3: tolerability (clinical and laboratory abnormalities) in HCV-infected subjects", "assay_type": "in vivo, human", "settings": "50-300 mg QD x 7 days", "excerpt": "This part was a randomized, double-blind, placebo-controlled, parallel group study in treatment-naïve, Genotype 1 HCV-infected subjects. Thirty (30) subjects were randomized across the treatment arms specified below.\nThis part were a randomized, open-label, parallel group study in treatment-naïve, Genotype 2, 3, 4, 5 and 6 HCV-infected subjects. Thirty (30) subjects were randomized across the treatment arms specified below.\nDosing, sampling, and analyses for Parts I and II were made according to Tables A and B."}, "[2]": {"test": "Example 4 Group A: plasma pharmacokinetics in healthy volunteers (LC/MS/MS)", "settings": "human, in vivo; for AUC(0-inf) / Cmax / half-life: mean ± SD; for AUC(0-inf): read-out: AUC∞ of Compound I; for Cmax: read-out: Cmax of Compound I; for half-life: read-out: t1/2 of Compound I (converted); for Tmax: median, read-out: Tmax of Compound I", "description": "Six sequential cohorts of 8 health volunteers per cohort were randomized via a computer-generated randomization list in the ratio of 2:6. Two of the healthy volunteers (HV) received placebo and the remaining six received Compound I under fasted conditions at single ascending doses of 10, 25, 50, 150, or 300 mg, or multiple doses at 300 mg QD for 7 days (below, “Group A”).\n(§1) Compound I was provided as size 0, white, hard hydroxypropyl methylcellulose (HPMC) capsules for oral administration at 5 mg, 25 mg, and 50 mg strengths. The same powder blend containing 33.3% weight/weight (w/w) Compound I, a diluent, and a disintegrant is used to fill the capsules for all dose strengths. Matching placebo capsules will also be provided. Storage conditions will be provided on the study drug container label.\n(§2) For Groups A and B, dosing occurred between approximately 08:00 AM and 10:00 AM on each dosing day. Dosing was fasted for all subjects in Groups A and B. For fasted dosing, subjects observed a fasting period of approximately 10 hours prior to each dose and for an additional 4 hours post-dose.\n(§3) Plasma samples were obtained up to 120 hours after dosing and the levels of Compound I and its Nucleoside metabolite were measured by using validated LC/MS/MS methodology. Plasma pharmacokinetic parameters were obtained by using non-compartmental analysis with parameters reported as mean±standard deviation (SD) except for Tmax where median (min-max) is shown."}, "[3]": {"test": "Example 4 Group B: plasma pharmacokinetics in genotype 1 HCV-infected subjects (LC/MS/MS)", "settings": "human, in vivo, fasted; for AUC(0-inf) / Cmax / half-life: mean ± SD; for AUC(0-inf): read-out: AUC∞ of Compound I; for Cmax: read-out: Cmax of Compound I; for half-life: read-out: t1/2 of Compound I (converted); for Tmax: median, read-out: Tmax of Compound I", "description": "Five sequential cohorts of 3 HCV-infected subjects (HCV) per cohort received under fasted conditions open-label Compound I at single ascending doses of 10, 25, 50, 150, and 300 mg (below, “Group B”).\nas §1, §2, §3"}, "[4]": {"settings": "10 mg, 10 mg single dose, fasted"}, "[5]": {"settings": "25 mg, 25 mg single dose, fasted"}, "[6]": {"settings": "50 mg, 50 mg single dose, fasted"}, "[7]": {"settings": "150 mg, 150 mg single dose, fasted"}, "[8]": {"settings": "300 mg, 300 mg single dose, fasted"}}, "data": [{"molecule": "CC(C)OC(=O)[C@@H](C)N[P@@](=O)(OC[C@H]1O[C@@H](n2ccc(=O)[nH]c2=O)[C@](C)(Cl)[C@@H]1O)Oc1ccccc1", "note": "[Compound I]", "values": [{"measurement": "tolerability", "setting": "[1]", "value": "well-tolerated with no observed patterns of clinical or laboratory abnormalities"}, {"measurement": "AUC(0-inf)", "setting": "[2]; [4]", "value": "26 ± 7.6", "unit": "ng·h/mL"}, {"measurement": "Cmax", "setting": "[2]; [4]", "value": "17.4 ± 6.64", "unit": "ng/mL"}, {"measurement": "half-life", "setting": "[2]; [4]", "value": "0.87 ± 0.25", "unit": "h"}, {"measurement": "Tmax", "setting": "[2]; [4]", "value": 0.8, "unit": "h"}, {"measurement": "AUC(0-inf)", "setting": "[2]; [5]", "value": "51.2 ± 12.8", "unit": "ng·h/mL"}, {"measurement": "Cmax", "setting": "[2]; [5]", "value": "28.8 ± 13.4", "unit": "ng/mL"}, {"measurement": "half-life", "setting": "[2]; [5]", "value": "0.91 ± 0.26", "unit": "h"}, {"measurement": "Tmax", "setting": "[2]; [5]", "value": 1, "unit": "h"}, {"measurement": "AUC(0-inf)", "setting": "[2]; [6]", "value": 162, "unit": "ng·h/mL"}, {"measurement": "Cmax", "setting": "[2]; [6]", "value": "82.4 ± 61.6", "unit": "ng/mL"}, {"measurement": "half-life", "setting": "[2]; [6]", "value": "1.04 ± 0.34", "unit": "h"}, {"measurement": "Tmax", "setting": "[2]; [6]", "value": 1, "unit": "h"}, {"measurement": "AUC(0-inf)", "setting": "[2]; [7]", "value": "1110 ± 690", "unit": "ng·h/mL"}, {"measurement": "Cmax", "setting": "[2]; [7]", "value": "667 ± 324", "unit": "ng/mL"}, {"measurement": "half-life", "setting": "[2]; [7]", "value": "1.16 ± 0.24", "unit": "h"}, {"measurement": "Tmax", "setting": "[2]; [7]", "value": 1, "unit": "h"}, {"measurement": "AUC(0-inf)", "setting": "[2]; 300 mg, 300 mg QD, D1, fasted", "value": "2170 ± 660", "unit": "ng·h/mL"}, {"measurement": "Cmax", "setting": "[2]; 300 mg, 300 mg QD, D1, fasted", "value": "1290 ± 333", "unit": "ng/mL"}, {"measurement": "half-life", "setting": "[2]; 300 mg, 300 mg QD, D1, fasted", "value": "1.88 ± 0.72", "unit": "h"}, {"measurement": "Tmax", "setting": "[2]; 300 mg, 300 mg QD, D1, fasted", "value": 0.8, "unit": "h"}, {"measurement": "AUC(0-inf)", "setting": "[2]; 300 mg, 300 mg QD, D7, fasted", "value": "2200 ± 494", "unit": "ng·h/mL"}, {"measurement": "Cmax", "setting": "[2]; 300 mg, 300 mg QD, D7, fasted", "value": "1280 ± 238", "unit": "ng/mL"}, {"measurement": "half-life", "setting": "[2]; 300 mg, 300 mg QD, D7, fasted", "value": "2.76 ± 1.79", "unit": "h"}, {"measurement": "Tmax", "setting": "[2]; 300 mg, 300 mg QD, D7, fasted", "value": 0.5, "unit": "h"}, {"measurement": "AUC(0-inf)", "setting": "[2]; [8]", "value": "1680 ± 725", "unit": "ng·h/mL"}, {"measurement": "Cmax", "setting": "[2]; [8]", "value": "924 ± 441", "unit": "ng/mL"}, {"measurement": "half-life", "setting": "[2]; [8]", "value": "1.19 ± 0.34", "unit": "h"}, {"measurement": "Tmax", "setting": "[2]; [8]", "value": 0.5, "unit": "h"}, {"measurement": "AUC(0-inf)", "setting": "[3]; 10 mg single dose", "value": "40 ± 12.6", "unit": "ng·h/mL"}, {"measurement": "Cmax", "setting": "[3]; 10 mg single dose", "value": "26.1 ± 11.9", "unit": "ng/mL"}, {"measurement": "half-life", "setting": "[3]; 10 mg single dose", "value": "1.47 ± 0.7", "unit": "h"}, {"measurement": "Tmax", "setting": "[3]; 10 mg single dose", "value": 0.5, "unit": "h"}, {"measurement": "AUC(0-inf)", "setting": "[3]; 25 mg single dose", "value": "140 ± 68.8", "unit": "ng·h/mL"}, {"measurement": "Cmax", "setting": "[3]; 25 mg single dose", "value": "68.4 ± 18.7", "unit": "ng/mL"}, {"measurement": "half-life", "setting": "[3]; 25 mg single dose", "value": "0.97 ± 0.29", "unit": "h"}, {"measurement": "Tmax", "setting": "[3]; 25 mg single dose", "value": 1, "unit": "h"}, {"measurement": "AUC(0-inf)", "setting": "[3]; 50 mg single dose", "value": "197 ± 40.1", "unit": "ng·h/mL"}, {"measurement": "Cmax", "setting": "[3]; 50 mg single dose", "value": "91.9 ± 10.7", "unit": "ng/mL"}, {"measurement": "half-life", "setting": "[3]; 50 mg single dose", "value": "1.19 ± 0.46", "unit": "h"}, {"measurement": "Tmax", "setting": "[3]; 50 mg single dose", "value": 1, "unit": "h"}, {"measurement": "AUC(0-inf)", "setting": "[3]; 150 mg single dose", "value": "664 ± 160", "unit": "ng·h/mL"}, {"measurement": "Cmax", "setting": "[3]; 150 mg single dose", "value": "297 ± 34", "unit": "ng/mL"}, {"measurement": "half-life", "setting": "[3]; 150 mg single dose", "value": "1.13 ± 0.29", "unit": "h"}, {"measurement": "Tmax", "setting": "[3]; 150 mg single dose", "value": 0.5, "unit": "h"}, {"measurement": "AUC(0-inf)", "setting": "[3]; 300 mg single dose", "value": "818 ± 256", "unit": "ng·h/mL"}, {"measurement": "Cmax", "setting": "[3]; 300 mg single dose", "value": "367 ± 537", "unit": "ng/mL"}, {"measurement": "half-life", "setting": "[3]; 300 mg single dose", "value": "1.58 ± 0.02", "unit": "h"}, {"measurement": "Tmax", "setting": "[3]; 300 mg single dose", "value": 1, "unit": "h"}]}]}
